From patent US6716828B1, “Compounds, methods and pharmaceutical compositions for treating cellular damage, such as neural or cardiovascular tissue damage” (Guilford Pharmaceuticals, Inc., priority 1999, dated 2004)
pIC50: −log10 of the molar value.

tested on: human fibroblast cells lines (either W138 or BJ cells); test: Extending or increasing proliferative capacity and lifespan of cells; type: cell-based; conditions: 10 μM
Method: At the time of subdivision, the media is aspirated, and the cells rinsed with phosphate buffer saline (PBS) and then trypsinzied. The cells are counted with a Coulter counter and plated at a density of 10^5 cells per cm^2 in 6-well tissue culture plates in DMEM/199 medium supplemented with 10% bovine calf serum and varying amounts (0.10 μM, and 1 mM; from a 100× stock solution in DMEM/M199 medium) of a PARP inhibitor. This process is repeated every 7 days until the cells appear to stop dividing. The untreated (control) cells reach senescence and stop dividing after about 40 days a culture. […] The cells treated with 1 mM 3-AB will still divide after 60 days in culture.

SMILES	effect on lifespan and proliferative capacity of the cells
NC(=O)c1cccc(N)c1 [3-amino-benzamide]	little or no effect

same assay, conditions: 100 μM

SMILES	effect on lifespan and proliferative capacity of the cells
NC(=O)c1cccc(N)c1 [3-amino-benzamide]	lengthen the lifespan of the cells

same assay, conditions: 1 mM

SMILES	effect on lifespan and proliferative capacity of the cells
NC(=O)c1cccc(N)c1 [3-amino-benzamide]	dramatically increases the lifespan and proliferative capacity of the cells

same assay, conditions: 1 mM; untreated cells stop dividing after about 40 days

SMILES	time in culture at which cells still divide
NC(=O)c1cccc(N)c1 [3-amino-benzamide]	> 60 days

tested on: rabbits; test: not given; conditions: 1 mg/kg; cited from earlier work

SMILES	reduction in infarct size
Oc1cccc2c(O)nccc12 [1,5-dihydroxyisoquinoline]	38-48%

same assay, conditions: single injection 10 mg/kg, one minute before occlusion or one minute before reperfusion; cited from earlier work

SMILES	reduction in infarct size in the heart
NC(=O)c1cccc(N)c1 [3-amino-benzamide]	32-42%

tested on: not given; test: not given; conditions: not given

melting point	SMILES
196 to 201 °C	COP(=O)(O)Cc1ccc2c(c1)-c1n[nH]c(=O)c3cccc(c13)O2

target: T1, purified recombinant human PARP (Homo sapiens, UniProt P09874); test: PARP enzyme assay (IC50), [3H]NAD incorporation; type: biochemical; conditions: approximate IC50 values
T1 construct: purchased Trevigan (Gaithersburg, Md.)
T1 sequence (P09874 whole entry): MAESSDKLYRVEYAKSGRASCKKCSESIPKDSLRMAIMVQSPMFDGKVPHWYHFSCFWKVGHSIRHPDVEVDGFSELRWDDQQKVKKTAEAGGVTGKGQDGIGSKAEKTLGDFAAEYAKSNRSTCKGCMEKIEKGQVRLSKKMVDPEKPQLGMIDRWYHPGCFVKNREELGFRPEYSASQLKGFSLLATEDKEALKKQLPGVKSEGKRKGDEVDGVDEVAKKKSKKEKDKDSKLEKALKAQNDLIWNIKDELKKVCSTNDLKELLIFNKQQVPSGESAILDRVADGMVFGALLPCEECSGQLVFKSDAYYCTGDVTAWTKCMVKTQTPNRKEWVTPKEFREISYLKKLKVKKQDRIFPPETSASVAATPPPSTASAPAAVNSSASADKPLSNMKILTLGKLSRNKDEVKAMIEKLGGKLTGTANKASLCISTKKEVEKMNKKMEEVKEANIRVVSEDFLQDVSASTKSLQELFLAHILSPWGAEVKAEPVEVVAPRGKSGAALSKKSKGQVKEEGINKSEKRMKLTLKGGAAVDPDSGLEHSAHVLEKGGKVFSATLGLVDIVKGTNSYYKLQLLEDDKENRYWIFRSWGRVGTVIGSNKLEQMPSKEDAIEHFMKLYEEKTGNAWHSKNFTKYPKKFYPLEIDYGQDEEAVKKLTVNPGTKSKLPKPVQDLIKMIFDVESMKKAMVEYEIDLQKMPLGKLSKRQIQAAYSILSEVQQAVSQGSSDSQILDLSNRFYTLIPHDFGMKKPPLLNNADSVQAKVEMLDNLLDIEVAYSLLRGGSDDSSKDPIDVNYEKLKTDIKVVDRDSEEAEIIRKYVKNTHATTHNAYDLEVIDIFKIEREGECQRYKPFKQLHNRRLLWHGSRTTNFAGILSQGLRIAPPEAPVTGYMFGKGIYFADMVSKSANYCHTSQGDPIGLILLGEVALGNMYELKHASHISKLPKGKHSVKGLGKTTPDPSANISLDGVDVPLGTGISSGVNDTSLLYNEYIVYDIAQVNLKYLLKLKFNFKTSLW
Method: A convenient method to determine IC50 of a PARP inhibitor compound is PARP assay using purified recombinant human PARP from Trevigan (Gaithersburg, Md.), as follows: The PARP enzyme assay is set up on ice in a volume of 100 microliters consisting of 100 mM Tris-HCl (pH 8.0). 1 mM MgCl2, 28 mM KCl, 28 mM NaCl, 0.1 mg/ml of DNase I activated herring sperm DNA (Sigma, Mo.), 3.0 micromolar [3H]nicotinamide adenine dinucleotide (470 mci/mmole), 7 micrograms/ml PARP enzyme, and various concentrations of the compounds to be tested. The reaction is initiated by incubating the mixture at 25° C. After 15 minutes of incubation, the reaction is terminated by adding 500 microliters of ice code 20% (w/v) trichloracetic acid. The precipitate formed is transferred onto a glass fiber filter (Packard Unifilter-GF/B) and washed three items with ethanol. After the filter is dried, the radioactivity is determined by scintillation counting.
Using the PARP assay described above, approximate IC50 values were obtained for the following compounds: […]

pIC50	SMILES
7.11	O=c1[nH]nc2c3c(cccc13)Oc1ccc(CN3CCN(c4ccccn4)CC3)cc1-2
7.28	O=C(O)c1cccc(S(=O)(=O)Nc2ccc3c(c2)-c2n[nH]c(=O)c4cccc-3c24)c1
6.80	O=c1[nH]nc2c3c(cccc13)Oc1ccc(S(=O)(=O)NCCN(CCO)CCO)cc1-2
7.07	CN(C)CCN(C)Cc1ccc2c(c1)-c1n[nH]c(=O)c3cccc(c13)O2
6.44	O=C1NCC2c3cc(S(=O)(=O)NCCN4CCCCC4)ccc3Oc3cccc1c32 (stereo not drawn)
7.40	NNC(=O)c1cc(OCc2ccc3c(c2)-c2n[nH]c(=O)c4cccc(c24)O3)cc(C(=O)NN)c1
6.84	O=C1NCC2c3cc(S(=O)(=O)NN4CCOCC4)ccc3Oc3cccc1c32 (stereo not drawn)
6.63	CN1CCN(S(=O)(=O)c2ccc3c(c2)C2CNC(=O)c4cccc(c42)O3)CC1 (stereo not drawn)
6.47	O=c1[nH]nc2c3c(cccc13)-c1ccc(S(=O)(=O)NCCN3CCOCC3)cc1-2
7.77	O=c1[nH]nc2c3c(cccc13)Oc1ccc(CSc3ccncc3)cc1-2
6.86	O=c1[nH]nc2c3c(cccc13)Oc1cc3ccccc3cc1-2
5.69	Cc1cc2c(c(S(=O)(=O)O)c1)Oc1cccc3c(=O)[nH]nc-2c13
6.79	O=C1NCC2c3cc(S(=O)(=O)O)ccc3Oc3cccc1c32 (stereo not drawn)
7.24	O=C(O)[C@@H]1CCCN1S(=O)(=O)c1ccc2c(c1)-c1n[nH]c(=O)c3cccc(c13)O2
6.23	COC(=O)C1CCCCN1S(=O)(=O)c1ccc2c(c1)C1CNC(=O)c3cccc(c31)O2 (stereo not drawn)
7.09	O=c1[nH]nc2c3c(cccc13)Oc1ccc(S(=O)(=O)NCCN3CCOCC3)cc1-2
7.77	CN(C)Cc1ccc2c(c1)-c1n[nH]c(=O)c3cccc(c13)O2
7.44	CC(=O)Nc1ccc2c(c1)-c1n[nH]c(=O)c3cccc(c13)O2
7.68	O=C(O)CCC(=O)Nc1ccc2c(c1)-c1n[nH]c(=O)c3cccc(c13)O2
7.36	O=c1[nH]nc2c3c(cccc13)Oc1ccc(CN3CCN(Cc4ccccc4)CC3)cc1-2
7.55	NCCSCc1ccc2c(c1)-c1n[nH]c(=O)c3cccc(c13)O2
6.72	O=c1[nH]nc2c3c(cccc13)Oc1ccc(S(=O)(=O)NCCN3CCCCC3)cc1-2
7.28	O=c1[nH]nc2c3c(cccc13)Oc1ccc(S(=O)(=O)O)cc1-2
6.92	CCCCN(C)Cc1ccc2c(c1)-c1n[nH]c(=O)c3cccc(c13)O2
7.64	O=C(O)C(O)C(O)C(=O)Nc1ccc2c(c1)-c1n[nH]c(=O)c3cccc(c13)O2 (stereo not drawn)

pIC50	SMILES
4.40	O=c1[nH]nc2c3c(cccc13)Oc1c-2ccc2ccccc12
7.14	O=c1[nH]nc2c3c(cccc13)Oc1ccc(CN3CCCCC3)cc1-2
7.00	O=c1[nH]nc2c3c(cccc13)Oc1ccc(-c3nc4ccccc4nc3-c3ccccc3)cc1-2
7.43	O=c1[nH]nc2c3c(cccc13)Oc1ccc(S(=O)(=O)NC3CN4CCC3CC4)cc1-2 (stereo not drawn)
7.27	O=c1[nH]nc2c3c(cccc13)Oc1ccc(COc3cccnc3)cc1-2
7.60	N#CCc1ccc2c(c1)-c1n[nH]c(=O)c3cccc(c13)O2
7.74	CC(=O)OC(C(=O)O)C(OC(C)=O)C(=O)Nc1ccc2c(c1)-c1n[nH]c(=O)c3cccc(c13)O2 (stereo not drawn)
7.16	CC(=O)Nc1ccc2c(c1)-c1n[nH]c(=O)c3cccc-2c13
6.70	CS(=O)(=O)Nc1ccc2c(c1)-c1n[nH]c(=O)c3cccc(c13)O2
4.60	Cc1cc2c(c(-n3nc4ccccc4n3)c1)Oc1cccc3c(=O)[nH]nc-2c13
7.60	O=c1[nH]nc2c3c(cccc13)Oc1ccc(NS(=O)(=O)O)cc1-2
6.47	O=C1NN=C2C3C=CC=CC3[S+]([O-])C3=CC=CC1C32 (stereo not drawn)
6.73	O=c1[nH]nc2c3c(cccc13)Oc1ccc(S(=O)(=O)NCCCN3CCOCC3)cc1-2
7.19	O=C(O)C(O)C(O)C(=O)Nc1ccc2c(c1)-c1n[nH]c(=O)c3cccc-2c13 (stereo not drawn)
7.35	NCNCc1ccc2c(c1)-c1n[nH]c(=O)c3cccc(c13)O2
7.12	O=c1[nH]nc2c3c(cccc13)Oc1ccc(CN3CCOCC3)cc1-2
6.89	CN(C)c1cccc(OCc2ccc3c(c2)-c2n[nH]c(=O)c4cccc(c24)O3)c1
7.23	CC(=O)OC(C(=O)O)C(OC(C)=O)C(=O)Nc1ccc2c(c1)-c1n[nH]c(=O)c3cccc-2c13 (stereo not drawn)
6.41	CCN(CC)CCNS(=O)(=O)c1ccc2c(c1)-c1n[nH]c(=O)c3cccc-2c13
7.54	O=C(O)CCC(=O)Nc1ccc2c(c1)-c1n[nH]c(=O)c3cccc-2c13
7.05	O=c1[nH]nc2c3c(cccc13)Oc1ccc(S(=O)(=O)NCCc3ccncc3)cc1-2
7.21	O=c1[nH]nc2c3c(cccc13)Oc1ccc(CN3CCN(c4ccccc4)CC3)cc1-2
7.46	NNC(=O)c1ccc(OCc2ccc3c(c2)-c2n[nH]c(=O)c4cccc(c24)O3)cc1
6.68	CN1CCN(S(=O)(=O)c2ccc3c(c2)-c2n[nH]c(=O)c4cccc(c24)O3)CC1

SMILES	pIC50
CCOP(=O)(Nc1ccc2c(c1)-c1n[nH]c(=O)c3cccc(c13)O2)OCC	6.70
